In EP0381527A1, “Ouabain like compounds and pharmaceutical compositions containing them” (YISSUM RESEARCH DEVELOPMENT COMPANY OF THE HEBREW …, priority 1989, dated 1990):

Experiments:
Na,K-ATPase [1] = assay: Inhibition of Na,K-ATPase activity in rat brain microsomal fraction (colorimetric inorganic phosphate); format: biochemical
Description: Assays for Digitalis-Like Activity: • The digitalis-like activity of each fraction obtained in the course of the purification was determined quantitatively using at least two of the following bioassays: • a. Inhibition of [^3H]-ouabain binding: • The binding of [^3H]-ouabain to rat brain synaptosomal fraction was carried out by a conventional filtration technique as previously described (Lichtstein D., et al., Life Sci. 38: 1261-1270 (1986)). In brief: The reaction mixture (500µl final volume) contained the following constituents (final concentrations): 50 mM Tris-HCI buffer (pH 7.4), 0.5 mM EDTA, 80 mM NaCI, 4 mM MgSO4, 2 mM ATP (Tris, vanadium-free) and 32 nM [^3H]-ouabain (19.5 Ci/mmol). Reactions were initiated by the addition of 200 µl of crude synaptosomal fraction resulting in a final protein concentration of 200 µg per reaction. Following incubation for 1 hr. at 37° C, the reactions were terminated by the addition of 3 ml cold (4°C) 50 mM Tris-HCI (pH 7.4) and filtered over Whatman GF/B filters. The filters were washed two times with 3 ml volumes of the same Tris buffer, dried and assayed for radioactivity in a Packard liquid scintillation counter at a counting efficiency of approximately 50%. Specific binding was calculated by subtracting the binding observed in the presence of 100 µM unlabeled ouabain from that observed in the absence of unlabeled ouabain. Specific binding represented 93% of the total binding under control conditions. • b. Inhibition of Na, K-ATPase activity: • Na,K-ATPase activity in rat brain microsomal fraction was determined as previously described (Lichtstein D., et al., Life Sci. 38: 1261-1270 (1986)). Enzyme activity was measured by the colorimetric determination of inorganic phosphate after the incubation of microsomes (200 µg protein per reaction) at 37 C in a solution (final volume 500 µl) containing (final concentrations) 34 mM Tris-HCI (pH 7.4), 100 mM NaCl, 20 mM KCI, 4 Mm MgC12 and 4 mM ATP (Tris, vanadium free). After preincubation for 10 min., the ATP was added to initiate the reaction. Reactions were terminated by the addition of 100 µl of 5% trichloroacetic acid and.the precipitate was removed by centrifugation. Na,K-independent ATPase activity was determined by omitting Na^+ and K^+ from the reaction mixture or by the addition of 1 mM ouabain to the complete assay mixture. • c. Inhibition of ^86Rb uptake to N1E115 cells: • Neuroblastoma N1E115 cells were grown in MEM (Modified Eagle's Medium) medium. Cells were removed from their growth flask by raising and lowering the medium with a pipette and centrifuged at 100 x g in a Sorval RC-5 centrifuge for 10 minutes. The pellet was resuspended in MEM. 86Rb-uptake was initiated by the addition of N1E115 cells to MEM which contained ^86Rb tracer (1 µCi). Uptake was terminated after 1 min. by the addition of 1.5 ml ice cold 125 mM MgC12 solution followed by 1 min. centrifugation in an Eppendorf centrifuge. The Eppendorf tube was cut and the pellet removed and transferred to a scintilation vial, to which 6 ml of Emulsifier Scintillator 299TM (Packard) were added and radioactivity was determined.

Na,K-ATPase [2] = assay: Inhibition of [3H]-ouabain binding to rat brain synaptosomal fraction (filtration); details: Figure 10; result in words
Description: Assays for Digitalis-Like Activity: • The digitalis-like activity of each fraction obtained in the course of the purification was determined quantitatively using at least two of the following bioassays: • a. Inhibition of [^3H]-ouabain binding: • The binding of [^3H]-ouabain to rat brain synaptosomal fraction was carried out by a conventional filtration technique as previously described (Lichtstein D., et al., Life Sci. 38: 1261-1270 (1986)). In brief: The reaction mixture (500µl final volume) contained the following constituents (final concentrations): 50 mM Tris-HCI buffer (pH 7.4), 0.5 mM EDTA, 80 mM NaCI, 4 mM MgSO4, 2 mM ATP (Tris, vanadium-free) and 32 nM [^3H]-ouabain (19.5 Ci/mmol). […] The filters were washed two times with 3 ml volumes of the same Tris buffer, dried and assayed for radioactivity in a Packard liquid scintillation counter at a counting efficiency of approximately 50%. Specific binding was calculated by subtracting the binding observed in the presence of 100 µM unlabeled ouabain from that observed in the absence of unlabeled ouabain. […] Inhibition of Na, K-ATPase activity: • Na,K-ATPase activity in rat brain microsomal fraction was determined as previously described (Lichtstein D., et al., Life Sci. 38: 1261-1270 (1986)). […]

CCCC=CC(O)CC(O)CCCCCCCCCC(=O)O (single isomer, unassigned) [DLC-II, 11,13-dihydroxy-14-octadecaenoic acid]
Na+, K+-ATPase activity (% of control) (Na,K-ATPase [1]; amount 1 (arbitrary units)): 90 % of control
Na+, K+-ATPase activity (% of control) (Na,K-ATPase [1]; amount 2 (arbitrary units)): 67 % of control
Na+, K+-ATPase activity (% of control) (Na,K-ATPase [1]; amount 3 (arbitrary units)): 71 % of control
Na+, K+-ATPase activity (% of control) (Na,K-ATPase [1]; amount 5 (arbitrary units)): 51 % of control
Na+, K+-ATPase activity (% of control) (Na,K-ATPase [1]; amount 8 (arbitrary units)): 10 % of control
inhibition of [^3H]-ouabain binding (Na,K-ATPase [2]): inhibit [^3H]-ouabain binding in a dose dependent mode
